{"source": "paper PMC11304236", "about": "“A Novel Drug Candidate for Sepsis Targeting Heparanase by Inhibiting Cytokine Storm” (Advanced Science, 2024)", "key": {"CLP-induced septic mice": {"test_system": "CLP-induced septic mice", "settings": "mouse, in vivo"}, "HPA [1]": {"test_system": "HPA", "experiment": "HPA expression in TNF-α-stimulated HUVECs (immunofluorescence, western blotting)", "assay_type": "cell-based, human", "settings": "CV122 50 µM 3 h, then TNF-α 20 ng mL−1 1 h", "procedure": "Lungs were harvested from LPS‐induced and CLP‐induced sepsis model mice, and frozen sections were prepared. HUVECs and RAW264.7 macrophages were incubated with CV122 for 3 h, and TNF‐α (20 ng mL^−1) and LPS (5 µg mL^−1) were used to stimulate cells for 1 h. Lung tissue, HUVECs, and RAW264.7 macrophages were fixed with 4% paraformaldehyde for 10 min before permeabilization with 0.5% Triton X‐100 for 10 min. The membrane was sealed with 4% skimmed milk powder and incubated at room temperature for 50 min. Primary antibodies were rabbit anti‐heparanase polyclonal antibodies overnight at 4 °C. The diluent of the secondary antibody FITC‐WGA‐lectin was kept at room temperature and protected from light for 1 h. Nuclei were stained with DAPI. After 120 s, images were acquired with a confocal microscope (LSM 800, Zeiss, Germany).\nCV122 (50 µM) was incubated with HUVECs and RAW264.7 cells for 3 h, and LPS (5 µg mL^−1) and TNF‐α (20 ng mL^−1) were incubated for 1 h. Total protein was extracted with RIPA tissue/cell lysate solution. Lung tissues were collected and homogenized in cold RIPA buffer to obtain proteins. The BCA method was used to quantify protein. After full denaturing, proteins were separated by 10% SDS‐PAGE and transferred to PVDF membrane. […] Blots were developed with a chemiluminescent HRP substrate, and the protein bands were detected with a chemiluminescence imager (MiniChemi610)."}, "LPS-induced septic mice": {"test_system": "LPS-induced septic mice", "settings": "mouse, in vivo"}, "HPA [2]": {"target": "T1, HPA (Homo sapiens, UniProt Q9Y251)", "T1 sequence (Q9Y251 158-543 limits assumed)": "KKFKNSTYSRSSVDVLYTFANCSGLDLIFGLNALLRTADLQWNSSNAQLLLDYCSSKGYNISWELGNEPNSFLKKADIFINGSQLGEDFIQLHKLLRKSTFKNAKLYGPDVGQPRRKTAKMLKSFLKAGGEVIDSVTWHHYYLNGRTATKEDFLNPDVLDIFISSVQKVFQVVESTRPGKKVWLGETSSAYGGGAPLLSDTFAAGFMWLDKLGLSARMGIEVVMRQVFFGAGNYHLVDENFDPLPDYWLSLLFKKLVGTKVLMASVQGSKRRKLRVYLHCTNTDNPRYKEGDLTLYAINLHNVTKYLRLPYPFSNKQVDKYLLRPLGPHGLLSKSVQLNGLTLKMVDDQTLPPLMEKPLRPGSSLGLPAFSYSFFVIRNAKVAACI", "T1 sequence (Q9Y251 36-109 limits assumed)": "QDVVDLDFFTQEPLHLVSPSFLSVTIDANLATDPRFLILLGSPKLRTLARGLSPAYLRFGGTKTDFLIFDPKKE", "experiment": "Homogeneous time-resolved fluorescence (HTRF) HPA inhibition in vitro", "assay_type": "biochemical", "procedure": "Active HPA was diluted with Buffer A to 120 ng mL^−1, biot‐HS‐K was diluted with Buffer B (pH 5.5) to 1.4 ng mL^−1, and SA‐d2 was diluted with Buffer C (pH 7.5) to 1 µg mL^−1, CV122 samples were diluted with Buffer A to different concentration gradients. Add 4 µL of sample solution and 3 µL of HPA solution or Buffer A to the micro‐96‐well plate. After incubating at 37 °C for 10 min, the enzyme reaction was started by adding 3 µL of biot‐HS‐K and incubating at 37 °C for 30 min. Then add 10 µL of SA‐d2 solution or Buffer C. After incubating for 15 min at room temperature, the HTRF signal was detected by a microplate reader, which was excited at 384 nm and emitted at 620 nm and 665 nm. The fluorescence intensity ratio of 665 nm/620 nm was used to calculate the average energy transfer rate (ΔF%) of each sample. The positive control system composed of biot‐HS‐K and SA‐d2 should produce the largest ΔF%, while the background fluorescence intensity of the negative control (biot‐HS‐K) should produce the smallest ΔF%.^[ [45] ^]"}, "ICAM-1 and VCAM-1": {"test_system": "ICAM-1 and VCAM-1", "experiment": "ICAM-1 and VCAM-1 on TNF-α-stimulated HUVECs by flow cytometry", "assay_type": "cell-based, human", "settings": "CV122 50 µM 3 h, TNF-α 20 ng mL−1 1 h", "procedure": "Each group of mice was euthanized 24 h after LPS injection, spleens were harvested, red blood cells were lysed to detect splenocyte apoptosis, and the ratio of CD3^+CD4^+ T cells, CD3^+CD8^+ T cells, CD3^−CD19^+ B cells in spleen cells and lymph nodes quantified. Antibodies were: FITC‐Annexin V and PI; APC‐CD3, FITC‐CD4, PE‐CD8a, and PE‐CD19. Each group of mice was euthanized 12 h after LPS injection, Lung, kidney, and spleens were harvested, red blood cells were lysed to detect the ratio of macrophages in multiple organs, Antibodies were: FITC anti‐mouse F4/80; APC anti‐mouse CD86. Flow cytometry was used to quantify the adhesion molecules ICAM‐1 and VCAM‐1 on the surface of RAW264.7 cells and HUVECs. CV122 (50 µM) was incubated with the cells for 3 h, LPS (5 µg mL^−1) and TNF‐α (20 ng mL^−1) were used to stimulate the cells for 1 h, and the cells were collected. FITC anti‐mouse CD54 antibody and AF647 anti‐mouse CD106 antibody were incubated for 30 min at room temperature in the dark, PBS was added at 1000 rpm, and the cells were centrifuged for 7 min. A 200‐mesh copper mesh was used to filter the cells into a flow cytometer, and a flow cytometer (BD Biosciences) was used for detection."}}, "data": [{"smiles": "COC1OC(COS(=O)(=O)O)C(OC2OC(C(=O)O)C(OC3OC(COS(=O)(=O)O)C(OC4OC(C(=O)O)C(OC5OC(COS(=O)(=O)O)C(O)C(O)C5NS(=O)(=O)O)C(OS(=O)(=O)O)C4O)C(OS(=O)(=O)O)C3NS(=O)(=O)O)C(O)C2OS(=O)(=O)O)C(O)C1NS(=O)(=O)O", "note": "(stereo not drawn) [CV122]", "values": [{"measurement": "HPA levels in the lungs", "setting": "CLP-induced septic mice", "result": "significantly reduced the HPA levels in the lungs"}, {"measurement": "TNF-α, IL-6 and IL-1β in serum and lungs", "setting": "CLP-induced septic mice", "result": "reduced the level"}, {"measurement": "body weight course", "setting": "CLP-induced septic mice", "result": "gradually normalized the septic mice"}, {"measurement": "cell surface glycocalyx in lungs (WGA)", "setting": "CLP-induced septic mice", "result": "protected cell surface glycocalyx"}, {"measurement": "lung pathological damage (HE)", "setting": "CLP-induced septic mice", "result": "significantly rescued"}, {"measurement": "survival rate", "setting": "CLP-induced septic mice; sc", "result": 80, "unit": "%"}, {"measurement": "HPA expression in HUVECs", "setting": "HPA [1]", "result": "significantly inhibited HPA expression in HUVECs"}, {"measurement": "AST, ALT, BUN in serum and MPO in lung tissue", "setting": "LPS-induced septic mice", "result": "returned to normal upon CV122 treatment, which was more effective than Suramin"}, {"measurement": "kidney damage (H&E)", "setting": "LPS-induced septic mice", "result": "resolved by CV122"}, {"measurement": "liver damage (H&E)", "setting": "LPS-induced septic mice", "result": "significantly improved by CV122"}, {"measurement": "lung inflammation by micro-CT imaging", "setting": "LPS-induced septic mice", "result": "almost completely inhibit this progress"}, {"measurement": "lung pathological damage (H&E)", "setting": "LPS-induced septic mice", "result": "significantly improved by CV122 administration"}, {"measurement": "lung weight/body weight ratio", "setting": "LPS-induced septic mice", "result": "significantly decreased"}, {"measurement": "lung wet–dry weight ratio", "setting": "LPS-induced septic mice", "result": "extremely significantly decreased"}, {"measurement": "spleen pathological changes (H&E)", "setting": "LPS-induced septic mice", "result": "no pathological changes were observed in spleen tissue"}, {"measurement": "IC50 rank in HPA inhibition screening", "setting": "HPA [2]; CV114-CV123 compared with fondaparinux, ****p < 0.0001", "result": "lowest IC50 values"}, {"measurement": "IC50", "setting": "HPA [2]; HTRF, in vitro", "result": 2970, "unit": "nM"}, {"measurement": "ICAM-1 and VCAM-1 expression", "setting": "ICAM-1 and VCAM-1", "result": "reversed after CV122 treatment"}]}]}
